Data on five compounds can be found in ChEMBL document CHEMBL3832761, “MMV Pathogen Box Bioactivity Data” (2017).

As usually defined, the MIC90 is an inhibitory concentration at the 90% level, which refers to growth in some studies and to a panel of isolates in others. Low readings indicate greater potency, high ones weaker potency. A word on the MIC: it is the lowest concentration that inhibits growth of the organism. For orientation: CC50 means the concentration that lowers cell viability or growth by half. The low end stands for harm at low concentration, the high end for better tolerance by the cells.

What all share (assay type): functional
The test system of assay [1] is Mycobacterium tuberculosis. Kind of assay: (§1) AntiMycobacterium tuberculosis activity day 10 in 7H9/2.5mM butyrate/pH6/0.1mM nitrite MIC90 (uM). Conditions: 240 h.
Assay [2] has as its system Mycobacterium tuberculosis. Kind of assay: AntiMycobacterium tuberculosis activity 2-week Alamar Blue 7H9/cholesterol/BSA/Tx MIC (uM). Conditions: 336 h. A general note: Alamar Blue is a resazurin reagent that responds to reducing activity.
Assay [3] concerns Mycobacterium tuberculosis. The assay is described as follows: AntiMycobacterium tuberculosis activity 2-week 7H9/ADC/Tw MIC (uM). Conditions: 336 h.
Assay [4] has as its system Mycobacterium tuberculosis. Kind of assay: AntiMycobacterium tuberculosis activity Non-Replicating form: Average MIC90 (uM).
Assay [5] relates to Mycobacterium tuberculosis. Kind of assay: AntiMycobacterium tuberculosis activity 2-week 7H9/DPPC/cholesterol/BSA/Tx MIC (uM). As to conditions: 336 h.
Assay [6] deals with Mycobacterium tuberculosis. The assay is described as §1. As to conditions: 240 h. The source holds these as a separate data set.
Assay [7] has as its system Mycobacterium tuberculosis. The assay is described as follows: AntiMycobacterium tuberculosis activity 1-week 7H9/ADC/Tw MIC (uM). Conditions: 168 h.
The test system of assay [8] is Mycobacterium tuberculosis. Kind of assay: AntiMycobacterium tuberculosis activity 1-week 7H9/glucose/BSA/Tx MIC (uM). Conditions: 168 h.
Assay [9] has as its system Mycobacterium tuberculosis. Kind of assay: AntiMycobacterium tuberculosis activity day 21 MIC99 in 7H9/2.5mM butyrate/pH6/0.1mM nitrite MIC99 (uM). Conditions: 504 h.
Assay [10] relates to Mycobacterium tuberculosis. Kind of assay: AntiMycobacterium tuberculosis activity day 21 in 7H9/2.5mM butyrate/pH6/0.1mM nitrite MIC90 (uM). As to conditions: 504 h.
Assay [11] concerns Mycobacterium tuberculosis. The assay is described as follows: AntiMycobacterium tuberculosis activity 1-week 7H9/cholesterol/BSA/Tx MIC (uM). As to conditions: 168 h.
For assay [12], the system named is HepG2. The assay is described as follows: HepG2 CC50 (uM) Cytotoxicity. As to conditions: Homo sapiens.
Assay [13] has as its system Mycobacterium tuberculosis. Kind of assay: AntiMycobacterium tuberculosis activity 2-week Alamar Blue 7H9/ADC/Tw MIC (uM). Conditions: 336 h.
For assay [14], the system named is Mycobacterium tuberculosis. Kind of assay: AntiMycobacterium tuberculosis activity 2-week 7H9/glucose/BSA/Tx MIC (uM). As to conditions: 336 h.
Assay [15] deals with Mycobacterium tuberculosis. Kind of assay: AntiMycobacterium tuberculosis activity 1-week GAST/Fe MIC (uM). As to conditions: 168 h.
For assay [16], the system named is Mycobacterium tuberculosis. Kind of assay: AntiMycobacterium tuberculosis activity 1-week 7H9/DPPC/cholesterol/BSA/Tx MIC (uM). Conditions: 168 h.
For assay [17], the system named is Mycobacterium tuberculosis. Kind of assay: AntiMycobacterium tuberculosis activity Replicating form: Average MIC90 (uM).
Assay [18] has as its system Mycobacterium tuberculosis. Kind of assay: AntiMycobacterium tuberculosis activity 2-week GAST/Fe MIC (uM). As to conditions: 336 h.

In brackets after ≈: the same amount, converted by molar mass.

Consider `COc1cccc(-c2nc3c(N4CCCC4)cccc3n2CC2CCCN2)n1` (stereo not given), for which the MIC90 is greater than 50 µM in assay [1]; 80.6 µM (≈ 30.4 µg/mL) in [4]; 12.5 µM (≈ 4.72 µg/mL) in [6]; 25 µM (≈ 9.44 µg/mL) in [10]; 38.5 µM (≈ 14.5 µg/mL) in assay [17]. Also, the MIC in [2] is 9.4 µM (≈ 3.55 µg/mL); in assay [3], 9.4 µM (≈ 3.55 µg/mL); in assay [5], 50 µM (≈ 18.9 µg/mL); in assay [7] it was 9.4 µM (≈ 3.55 µg/mL); in assay [8], 25 µM (≈ 9.44 µg/mL); in assay [9], greater than 50 µM. For the same compound, the MIC is 37 µM (≈ 14 µg/mL) in [11]; 6.25 µM (≈ 2.36 µg/mL) in assay [13]; 37 µM (≈ 14 µg/mL) in assay [14]; 4.7 µM (≈ 1.77 µg/mL) in assay [15]; 25 µM (≈ 9.44 µg/mL) in [16]; 4.7 µM (≈ 1.77 µg/mL) in assay [18]. This compound showed a CC50 in assay [12] of 25 µM.

Take `COc1ccc2nc(C)cc(OCC(=O)NCc3ccccc3)c2c1`: the MIC90 in assay [1] was greater than 50 µM; in [4] it was 27.1 µM (≈ 9.12 µg/mL); in assay [6] it was greater than 50 µM; in [10] it was greater than 50 µM; in assay [17], greater than 100 µM. Also, the MIC in assay [2] was 3.13 µM (≈ 1.05 µg/mL); in assay [3], greater than 50 µM; in assay [5], greater than 50 µM; in [7], greater than 50 µM; in assay [8], greater than 50 µM; in assay [9] it was greater than 50 µM. The MIC in [11] was greater than 50 µM; in [13], 6.25 µM (≈ 2.1 µg/mL); in assay [14], greater than 50 µM; in assay [15] it was 0.78 µM (≈ 0.262 µg/mL); in assay [16] it was 12.5 µM (≈ 4.2 µg/mL); in assay [18], 1.56 µM (≈ 0.525 µg/mL). In addition, the CC50 in assay [12] is greater than 100 µM.

In the case of `Cn1c(=O)c2c(S(C)(=O)=O)snc2n(C)c1=O`, the MIC90 in [1] was 12.5 µM (≈ 3.44 µg/mL); in assay [4], less than 0.23 µM; in [6] it was 6.25 µM (≈ 1.72 µg/mL); in [10], 12.5 µM (≈ 3.44 µg/mL); in assay [17], 15.4 µM (≈ 4.24 µg/mL). In addition, the MIC came out at 25 µM (≈ 6.88 µg/mL) in [2]; 25 µM (≈ 6.88 µg/mL) in assay [3]; 37 µM (≈ 10.2 µg/mL) in [5]; 19 µM (≈ 5.23 µg/mL) in assay [7]; 12.5 µM (≈ 3.44 µg/mL) in assay [8]; 12.5 µM (≈ 3.44 µg/mL) in assay [9]. Also, the MIC in [11] was found to be 25 µM (≈ 6.88 µg/mL); in assay [13] it was 25 µM (≈ 6.88 µg/mL); in assay [14], 19 µM (≈ 5.23 µg/mL); in assay [15] it was 4.7 µM (≈ 1.29 µg/mL); in assay [16] it was 19 µM (≈ 5.23 µg/mL); in assay [18], 6.25 µM (≈ 1.72 µg/mL). The compound also gave a CC50 in assay [12] of 1.1 µM.

As to `CCC(Sc1nc2ccccc2o1)C(=O)Nc1nnc(C)s1` (stereo not given), the MIC90 was greater than 50 µM in assay [1]; 4.49 µM (≈ 1.5 µg/mL) in assay [4]; 50 µM (≈ 16.7 µg/mL) in [6]; 50 µM (≈ 16.7 µg/mL) in assay [10]; 68.4 µM (≈ 22.9 µg/mL) in assay [17]. In addition, the MIC in assay [2], in assay [3], in [5], in [7], in assay [8] and in [9] was greater than 50 µM throughout. The MIC in assay [11] is greater than 50 µM; in [13], greater than 50 µM; in assay [14] it was greater than 50 µM; in assay [15], 9.4 µM (≈ 3.14 µg/mL); in assay [16] it was greater than 50 µM; in [18] it was 12.5 µM (≈ 4.18 µg/mL). The CC50 in assay [12] is greater than 100 µM.

As to `N#Cc1ccc(-c2ccc(OCC(N)=O)cc2)cc1`, the MIC90 in [1] was greater than 50 µM; in assay [4] it was 13.7 µM (≈ 3.46 µg/mL); in [6], 25 µM (≈ 6.31 µg/mL); in assay [10], 25 µM (≈ 6.31 µg/mL); in assay [17], 23.2 µM (≈ 5.86 µg/mL). In addition, the MIC in [2] is no less than 50 µM; in [3] it was greater than 50 µM; in [5] it was 50 µM (≈ 12.6 µg/mL); in [7] it was 37 µM (≈ 9.33 µg/mL); in assay [8], 25 µM (≈ 6.31 µg/mL); in [9] it was greater than 50 µM. For the same compound, the MIC was found to be 12.5 µM (≈ 3.15 µg/mL) in assay [11]; 50 µM (≈ 12.6 µg/mL) in [13]; 50 µM (≈ 12.6 µg/mL) in [14]; 4.7 µM (≈ 1.19 µg/mL) in [15]; 12.5 µM (≈ 3.15 µg/mL) in [16]; 4.7 µM (≈ 1.19 µg/mL) in [18]. For the same compound, the CC50 in [12] is greater than 100 µM.
